How the values were obtained:
[1] = target: T1, streptavidin magnetic particles-desthiobiotin-bound probe molecules-target substance complex (Streptomyces avidinii, UniProt P22629); assay: Dissociation efficiency: target cells released from the capturing carrier by the dissociation agent (quantitative PCR cell count); settings: 250 μL dissociation agent liquid in PBS, room temperature, 20 minutes; HT-29 cells isolated / cells bound x 100
T1 construct: purchased Invitrogen Dynabeads M-280 Streptavidin
T1 sequence (P22629 25-183, one chain of several): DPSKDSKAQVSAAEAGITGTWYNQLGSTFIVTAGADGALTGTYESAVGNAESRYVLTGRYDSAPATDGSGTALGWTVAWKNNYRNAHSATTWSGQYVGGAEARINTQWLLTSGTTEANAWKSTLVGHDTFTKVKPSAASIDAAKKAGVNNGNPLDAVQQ
Procedure: The number of cells was determined by measuring the quantity of genome DNA according to the quantitative PCR method.
(1) Measurement of the Number of Cells Bound to the Capturing Carrier:
50 μL of 0.8 mg/mL solution of proteinase K (protease, manufactured by Qiagen N.V.) dissolved in 10-mM Tris-HCl buffer solution (pH: 8.3) was added to the total amount of the combination of the capturing carrier and the target cells yielded in the below Examples and Comparative Example, and the resultant was reacted by heating at 55° C. for 15 minutes to elute DNA. Subsequently, this solution was heated at 95° C. for 20 minutes to inactivate proteinase K. 20 μL of the resultant DNA solution was added to 30 μL of a quantitative PCR cocktail (Fast Start Taq, manufactured by Roche (Co.)) to carry out quantitative PCR. Other DNA solutions prepared by the same method using predetermined number of cells were used to prepare a calibration curve. A 7500 Real-Time PCR System, manufactured by Applied Biosystems (Co.), was used for the quantitative PCR.
(2) Measurement of the Number of Cells Isolated from the Capturing Carrier: […]
The efficiency of dissociation of (strept) avidin from the biotin derivative was determined according to the following equation: Efficiency of Dissociation (%)=“the number of the cells isolated from the capturing carrier”/“the number of the cells bound to the capturing carrier”×100
1 mg aliquots of the capturing carrier yielded in Preparation Example 2 were added into test tubes. […] The number of the cells bound to the isolated capturing carrier was measured, and the number was 8,500, which was 85% of the number of the cells used for the Example. […]

avidin = avidin (Gallus gallus, UniProt P02701); settings: cited from earlier work
avidin, sequence (P02701 25-152, species assumed): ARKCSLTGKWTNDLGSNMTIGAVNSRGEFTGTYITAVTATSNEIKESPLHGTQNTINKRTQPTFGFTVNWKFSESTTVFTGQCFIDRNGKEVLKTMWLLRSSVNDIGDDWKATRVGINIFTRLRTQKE

| Compound | Dissociation efficiency (%) [1] [%] | binding constant with avidin (avidin) |
| --- | --- | --- |
| O=C(O)CCCC[C@@H]1SC[C@@H]2NC(=O)N[C@@H]21 [Biotin, biotin] | 3 | 10^15 M |
| BSA-Biotin6: dissociation agent in which six (6) in average of biotin were bound to one molecule of BSA | 70 |  |
| BSA-Biotin10: dissociation agent in which ten (10) in average of biotin were bound to one molecule of BSA | 96 |  |

From patent US8685655B2, “Dissociation method and dissociation agent for avidin and biotin derivatives” (JSR Corporation, priority 2009, dated 2014)
